Source: patent publication US12616672B2, “Methods for assessing risk of cardiovascular disease and methods and compounds for use in treating or preventing cardiovascular disease” (Queen Mary University of London, priority 2017, dated 2026)

What was measured:
[1] = test system: healthy volunteer peripheral blood neutrophils, monocytes and platelets; assay: Healthy volunteer whole blood incubated with RvDn-3 DPA then PAF, flow cytometry of activation markers; assay type: cell-based, human; conditions: 0.1, 1, 10 nM, 15 min then PAF 30 min
Experimental: Blood was collected from healthy volunteers and incubated with RvD2n-3 DPA, RvD5n-3 DPA (0.1 nM, 1 nM or 10 nM) or vehicle (PBS) for 15 min (37° C.) then with PAF (100 ng/ml; 30 min; 37° C.). Cell activation and leukocyte-platelet aggregates were assessed using flow cytometry. (A,B) Representative histograms depicting neutrophil (A) CD11b and (B) CD62P expression. (C,D) Cumulative neutrophil ([…]) CD11b and (D) CD62P expression. (E,F) Monocyte (E) CD11b and (F) CD62P expression. Results are mean of n=5 per time point and expressed as percentage change from PAF incubated cells. *p<0.05 compared to PAF using one-sample t test, followed by Sidak correction of p values.
(§1) Blood was collected from healthy volunteers and incubated with RvD2n-3 DPA, RvD5n-3 DPA (0.1 nM, 1 nM or 10 nM) or vehicle (PBS) for 15 min (37° C.) then with PAF (100 ng/ml; 30 min; 37° C.). Cell activation and leukocyte-platelet aggregates were assessed using flow cytometry. (A,B) Images depicting platelet monocyte (A) and (B) platelet-neutrophil aggregates. Results are representative of n=3 distinct experiments. (C,D) Cumulative neutrophil (C) CD11b and (D) CD62P expression. (E,F) Monocyte (E) CD11b and (F) CD62P expression. Results are mean of n=5 per condition and expressed as percentage change from PAF incubated cells. *p<0.05 compared to PAF using Wilcoxon Signed Rank Test. (G) Platelet rich plasma was incubated with vehicle (PBS) or RvD5n-3 DPA 0.1-10 nM (15 min; 37° C.) and PAF (100 nM; 30 min; 37° C.). Adhesion molecule expression evaluated using flow cytometry. Results are mean±s.e.m. n=5 healthy volunteers. * p, 0.05 compared to Vehicle group using Friedman's test followed by Dunn's multiple comparisons test.
After stimulation, samples were washed twice with PBS for 12 min at 800×g. Samples were stained for flow cytometry as described below.
(§2) Whole blood was incubated with lineage-specific markers for 45 min (4° C., in DPBS containing 0.02% BSA). The following anti-human antibodies were used: VioBlue-anti-CD41, PE-Cy5-anti-CD62P, Brilliant Violet 711-anti-CD11b, APC-Cy7-anti-CD16, Alexa Fluor 647-anti-CD14. After staining, red blood cells were lysed using Whole Blood Lysing Reagent Kit, according to the manufacturer's instructions. Data was collected using a flow cytometer and analysis was conducted using appropriate software.

[2] = test system: peripheral blood leukocytes and platelets from CVD patients; assay: CVD patient whole blood incubated with RvD2n-3 DPA or RvD5n-3 DPA for 45 min, flow cytometry; assay type: cell-based, human; conditions: no PAF
Experimental: FIG. 8: RvD2n-3 DPA and RvD5n-3 DPA reduce leukocyte activation in peripheral blood from CVD patients. Peripheral blood from patients diagnosed with cardiovascular disease (CVD) was collected at 9:00 h. […] Expression of CD62P on (A) neutrophils (B) monocytes and CD11b on (C) neutrophils and (D) monocytes was investigated using flow cytometry and fluorescently labelled antibodies.
as §2
(§3) In select experiments platelet adhesion molecule expression was assessed. Here platelets were incubated with fluorescently labelled mouse anti-human VioBlue-anti-CD41, PE-Cy5-anti-CD62P, PerCP/Cy5.5-anti-CD63 and FITC-ant-CD42b for 30 min at 4° C. Cells were then washed and fluorescence, staining evaluated using LSRFortessa cell analyser (BD Biosciences) and analysed using FlowJo software (Tree Star Inc., V10).

platelet rich plasma = assay: PRP incubations with RvD5n-3 DPA then PAF, platelet adhesion molecule expression by flow cytometry; assay type: cell-based, human; conditions: 0.1-10 nM, 15 min, then PAF 100 nM 30 min
Experimental: as §1, with “FIG. 21: RvD2n-3 DPA” for “Blood was collected from healthy volunteers”, “and” for “and incubated with RvD2n-3 DPA,”, “reduce monocyte, neutrophil and platelet activation in healthy volunteer peripheral blood. […]” for “(0.1 nM, 1 nM or 10 nM) or vehicle (PBS) for 15 min (37° C.) then with PAF (100 ng/ml; 30 min; 37° C.).”
Peripheral blood from healthy volunteers was collected in acidified-citrate-dextrose. Blood was centrifuged at 500×g for 20 min. PRP was collected and cells incubated with RvD5n-3 DPA or vehicle (0.01% EtOH+PBS) for 15 min at 37° C. Cells were then incubated with PAF (100 nM) or Vehicle (0.01% EtOH) for 30 min at 37° C. Cells were then washed with PBS and cellular activation was assessed using flow cytometry as detailed below.
as §3

Apo E^−/− mice = assay: Apo E−/− mice given RvD5n-3 DPA: aortic arch Oil red-O staining; assay type: in vivo; conditions: 100 ng/mouse i.v., alternate days, 2 weeks; vs vehicle
Experimental: Mice (male and female) were fed a western diet for 6 weeks from 4 weeks of age and kept of a 12 h light dark cycle. At 8 weeks of age, mice were given RvD5n-3 DPA (100 ng/mouse; i.v.) or vehicle on alternate days for a 2-week period. Mice were culled, aortic arches were collected and stained using oil-red O as in Khambata R S et al. Anti-inflammatory actions of inorganic nitrate stabilize the atherosclerotic plaque. Proc Natt Acad Sci USA. 2017; 114(4):E550-E559, the contents of which are incorporated herein by reference. Staining intensity was determined using image processing software and expressed as relative units per mm^2. The descending aorta was collected, placed in ice-cold methanol and lipid mediators identified and quantified as described above.

[3] = test system: peripheral blood leukocytes and platelets from CVD patients; assay: CVD patient whole blood incubated with RvD2n-3 DPA or RvD5n-3 DPA then PAF, flow cytometry; assay type: cell-based, human
[4] = CVD patient whole blood, 0.1, 1, 10 nM, 45 min
[5] = CVD patient whole blood, 45 min

## CC/C=C\C[C@H](O)/C=C/C=C\C/C=C\C=C\[C@@H](O)CCCCCC(=O)O [RvD5n-3 DPA, 7,17-trihydroxy-8E,10,13,15E,19Z-docosapentaenoic acid]
[1]
  leukocyte-platelet aggregates: dose-dependent decreases
[1]; vs PAF alone
  monocyte expression of CD11b: dose-dependent decreases
  neutrophil CD11b expression: dose-dependent decreases
[2]; [4]
  monocyte CD11b expression: significantly reduced
  neutrophil CD11b expression: significantly reduced
  platelet-monocyte aggregates: reduction
  platelet-neutrophil aggregates: reduction
[2]; [5]
  platelet CD62P expression: downregulated
  platelet CD63 expression: downregulated
[2]; CVD patient whole blood
  potency in reducing neutrophil-platelet and monocyte-platelet aggregates, compared: higher potency than RvD2n-3 DPA
Platelet rich plasma
  PAF mediated upregulation of CD41 expression on platelets: dose dependent reduction
  PAF mediated upregulation of CD62P expression on platelets: dose dependent reduction
  PAF mediated upregulation of CD63 expression on platelets: dose dependent reduction
Apo E^−/− mice
  aortic lesions (Oil red-O staining): significant reduction
[3]
  expression of CD62P on peripheral blood platelets: dose-dependently regulated
  expression of CD63 on peripheral blood platelets: dose-dependently regulated
